Measurements published in ChEMBL document CHEMBL2146428, “Luminmycins A-C, cryptic natural products from Photorhabdus luminescens identified by heterologous expression in Escherichia coli” (J Nat Prod, 2012).
Values after ≈ are worked out from the molar mass of the structure shown. Active and inactive are the calls of the source. The rule behind the calls is not given here.

Key:
Candida albicans = experiment: Antifungal activity against Candida albicans after 16 hrs by serial dilution method; type: functional
HCT-116 [1] = experiment: Cytotoxicity against human HCT116 cells assessed as cell viability at 100 ug/mL after 5 days by MTT assay relative to control; type: functional, cell-based
HCT-116 [2] = experiment: Cytotoxicity against human HCT116 cells assessed as cell viability after 5 days by MTT assay relative to control; type: functional, cell-based; conditions: HCT-116, 120 h

In the case of `CCCCCCC/C=C/C=C/C(=O)N[C@H](C(=O)N[C@@H](CCCCN)C(=O)N[C@@H](C)C(O)CC(=O)O)[C@@H](C)O` (stereo partly specified), the Activity (Candida albicans) is reported as “inactive” and the Activity (HCT-116 [1]) is reported as “inactive”.
For `CCCCCCC/C=C/C=C/C(=O)N[C@H](C(=O)N[C@H]1C[C@@H](O)CCNC(=O)/C=C/[C@H](C)NC1=O)[C@@H](C)O` [GLIDOBACTIN A], the MIC (Candida albicans) was 2 µg/mL (≈ 3.84 µM) and the IC50 (HCT-116 [2]) was 33.3 nM.
In the case of `CCCCCCC/C=C/C=C/C(=O)N[C@H](C(=O)N[C@H]1CCCCNC(=O)/C=C/[C@H](C)NC1=O)[C@@H](C)O` [LUMINMYCIN A], the Activity (Candida albicans) is reported as “inactive” and the IC50 (HCT-116 [2]) is reported as 91.8 nM.
